Molecules are shown by their SMILES. Structures can show the parent of a compound that is named as a salt. Where only a bound is given, the exact number is not on record here.

This assay addresses T1, SCD (SCD-containing rat microsomes) (Rattus norvegicus, UniProt P07308).
T1 construct: SCD-containing rat microsomes (2 μg protein); from tissue
T1 sequence (P07308 1-358): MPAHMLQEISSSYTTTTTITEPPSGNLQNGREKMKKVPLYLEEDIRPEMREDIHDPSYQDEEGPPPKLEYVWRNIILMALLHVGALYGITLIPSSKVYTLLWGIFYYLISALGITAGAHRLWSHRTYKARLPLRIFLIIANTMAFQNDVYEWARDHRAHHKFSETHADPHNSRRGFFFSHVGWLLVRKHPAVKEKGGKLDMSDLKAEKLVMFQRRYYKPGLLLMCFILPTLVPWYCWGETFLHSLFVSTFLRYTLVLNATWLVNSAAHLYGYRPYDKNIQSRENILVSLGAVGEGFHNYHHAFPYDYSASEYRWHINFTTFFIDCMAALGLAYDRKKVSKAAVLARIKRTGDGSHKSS
The assay is described as follows: in vitro assay for SCD activity based on production of [3H]H2O from [9,10-3H] stearoyl Coenzyme A. Type of assay: biochemical. The following applies: SCD-containing rat microsomes (2 μg protein), substrate 1 μM, 6 min incubation, 5 min preincubation with compound; read-out: average pIC50 value, in vitro assay for SCD activity (converted). The protocol: The compounds of the present invention may be analysed in vitro for SCD activity using an assay based on the production of [^3H]H2O, which is released during the enzyme-catalyzed generation of the monounsaturated fatty acyl CoA product. The assay is performed in a 96-well filtration plates. The titrated substrate used in the assay is the [9,10-^3H] stearoyl Coenzyme A. After incubation for 6 minutes of SCD-containing rat microsomes (2 μg protein) and substrate (1 μM), the labelled fatty acid acyl-CoA species and microsomes are absorbed with charcoal and separated from [^3H]H2O by centrifugation. The formation of [^3H]H2O is used as a measure of SCD activity. Compounds at concentrations starting at 10 μM to 0.1 nM or vehicle (DMSO) are preincubated for 5 minutes with the microsomes before addition of the substrate. The concentration-responses are fitted with sigmoidal curves to obtain IC50 values.

On to `CCc1cc(NC(=O)c2ccc3c(c2)CCNC3)nn1Cc1cc(Cl)ccc1OCC(C)C` [Example 1, N-[1-({5-chloro-2-[(2-methylpropyl)oxy]phenyl}methyl)-5-ethyl-1H-pyrazol-3-yl]-1,2,3,4-tetrahydro-6-isoquinolinecarboxamide hydrochloride], for which the IC50 is under 3.16 µM.

For the compound `CC(C)COc1ccc(Cl)cc1Cn1nc(C(=O)Nc2ccc3c(c2)CCNC3)cc1C1CC1` [1-({5-chloro-2-[(2-methylpropyl)oxy]phenyl}methyl)-5-cyclopropyl-N-(1,2,3,4-tetrahydro-6-isoquinolinyl)-1H-pyrazole-3-carboxamide hydrochloride], the IC50 was over 10 µM.

With `CC(C)COc1ccc(Cl)cc1Cn1nc(NC(=O)c2ccc3c(c2)CCNC3)cc1C1CC1` [Example 2, N-[1-({5-chloro-2-[(2-methylpropyl)oxy]phenyl}methyl)-5-cyclopropyl-1H-pyrazol-3-yl]-1,2,3,4-tetrahydro-6-isoquinolinecarboxamide hydrochloride], the IC50 was under 3.16 µM.

For `CCCc1cc(C(=O)Nc2ccc3c(c2)CCNC3)nn1Cc1cc(Cl)ccc1OCC(C)C` [1-({5-chloro-2-[(2-methylpropyl)oxy]phenyl}methyl)-5-propyl-N-(1,2,3,4-tetrahydro-6-isoquinolinyl)-1H-pyrazole-3-carboxamide hydrochloride], the IC50 was 3.16 to 10 µM.
